Experimental data as given in patent US10206944B2, “Chondroitin for use in medicine” (ALTERGON S.A., priority 2012, dated 2019).

Tests used:
Sprague Dawley rats = assay: Subacute toxicity study, 30 days; assay type: in vivo, rat
Procedure: Subacute toxicity study—The study was performed on the rat by administering chondroitin orally (p.o.) and intramuscularly (i.m.). For each of the two studies the animals (Sprague Dawley rats) were divided into 4 groups formed by 15 males and 15 females; chondroitin at the concentration of 50, 100 and 200 mg/Kg respectively was administered to the first 3 groups, and the carrier alone to the fourth group; the administration volume was 10 mL/Kg for p.o. administration and 5 mL/Kg for i.m. administration. Daily administration continued for 30 days. The doses used represent up to 20 times the human therapeutic dose. The general state of health and behaviour of the treated animals were monitored daily, and weight variations, haematological status and urine were evaluated every 5 days. […] At the end of the study all animals were euthanized and an autopsy and histopathological analysis of the main organs (lungs, heart, liver, ovaries, uterus, testicles, kidneys and pituitary gland) were conducted. None of these evaluations indicated any significant differences between the animals treated with chondroitin and the control animals which received the carrier alone.

[1] = system: volunteers suffering from dry eye; assay: Ophthalmic eyedrops in volunteers suffering from dry eye; assay type: in vivo, human
Procedure: Two ophthalmic preparations were compared: a conventional one based on hyaluronic acid and one based on chondroitin, both at the concentration of 3% w/v in NaCl saline solution at pH 7.4. The eyedrops were prepared in single-dose packaging sterilised in the autoclave. […] The volunteers, of both sexes, aged between 45 and 60 years, were randomised into two groups of 15, and treated with the two types of eyedrops. Under medical control the inflammatory state of the corneal surface was evaluated at the beginning and end of the treatment, and the evaluations of the treated patients relating to tolerability, duration of the wetting effect, and visual alteration after application, were recorded. A scale of 1 to 5 was used for the clinical evaluations and the patients' evaluations, where 5 represents optimum resolution of the pathological condition and its sequelae. […]

Substance: chondroitin
- subacute toxicity, conclusion (Sprague Dawley rats; rat, 50, 100 and 200 mg/Kg p.o. and i.m., 30 days): non-toxic at the doses used
- No toxicity (dose), subacute 30 days (Sprague Dawley rats; rat, p.o. and i.m., daily for 30 days): No toxicity >200 mg/kg/day p.o. and i.m.
- Doctor: corneal inflammation ([1]; 0 days, 3% w/v eyedrops, scale of 1 to 5, 5 optimum): 1.1 ± 0.2
- Patient: absence of visual alteration ([1]; 10 days, scale of 1 to 5): 4.6 ± 0.2
- Patient: tolerability ([1]; 10 days, scale of 1 to 5): 4.7 ± 0.2
- Patient: wetting effect ([1]; 10 days, scale of 1 to 5): 4.8 ± 0.3
- Patient: absence of visual alteration ([1]; 20 days, scale of 1 to 5): 4.7 ± 0.1
- Patient: tolerability ([1]; 20 days, scale of 1 to 5): 4.5 ± 0.5
- Patient: wetting effect ([1]; 20 days, scale of 1 to 5): 4.6 ± 0.2
- Doctor: corneal inflammation ([1]; 30 days, 3% w/v eyedrops 4 times a day, scale of 1 to 5): 4.2 ± 0.3
- Patient: absence of visual alteration ([1]; 30 days, scale of 1 to 5): 4.8 ± 0.1
- Patient: tolerability ([1]; 30 days, scale of 1 to 5): 4.8 ± 0.1
- Patient: wetting effect ([1]; 30 days, scale of 1 to 5): 4.9 ± 0.1
